ChEMBL document CHEMBL6087458, “The Discovery of a Novel AXL/Triple Angiokinase Inhibitor Based on 6-Chloro-Substituted Indolinone and Side Chain Methyl Substitution Inhibiting Pancreatic Cancer Growth and Metastasis” (J Med Chem, 2025)
Values belong to the molecule of their own block, whether it stands above or below them.

Tests used:
MDA-MB-231 = test: cells; details: Homo sapiens, MDA-MB-231, 72 h
Description: Antiproliferative activity against human MDA-MB-231 cells assessed as cell viability incubated for 72 hrs by MTT assay

[1] = Cytotoxicity against mouse NIH/3T3 cells assessed as cell viability incubated for 72 hrs by MTT assay; type: toxicity, cell-based, NIH3T3
BXPC-3 [2] = test: cells; details: Homo sapiens, BXPC-3, 72 h
Description: Antiproliferative activity against human BXPC-3 cells assessed as cell viability incubated for 72 hrs by MTT assay

[3] = Cytotoxicity against human HUVEC cells assessed as cell viability incubated for 72 hrs by MTT assay; type: toxicity, cell-based
[4] = Cmax in Sprague-Dawley rat at 50 mg/kg, po; type: ADME, organism-based; details: in vivo
PC-9 = test: cells; details: Homo sapiens, PC-9, 72 h
Description: Antiproliferative activity against human PC-9 cells assessed as cell viability incubated for 72 hrs by MTT assay

NCI-H1975 = test: cells; details: Homo sapiens, NCI-H1975, 72 h
Description: Antiproliferative activity against human NCI-H1975 cells assessed as cell viability incubated for 72 hrs by MTT assay

[5] = Oral bioavailability in Sprague-Dawley rat at 50 mg/kg; type: ADME, organism-based; details: in vivo, po, 50 mg/kg
[6] = Tmax in Sprague-Dawley rat at 50 mg/kg, po; type: ADME, organism-based; details: in vivo
BXPC-3 [7] = test: Antitumor activity against human BXPC-3 cells xenografted in mouse assessed as reduction in tumor weight at 50 mg/kg, po administered for 14 days; type: functional; design: scale not given: the % may be the effect or the level left; details: time 14 day
SW480 = test: cells; details: Homo sapiens, SW480, 72 h
Description: Antiproliferative activity against human SW480 cells assessed as cell viability incubated for 72 hrs by MTT assay

[8] = Metabolic stability in rat liver microsome assessed as half life measured upto 240 mins by HPLC analysis; type: ADME; details: liver microsomes
[9] = Clearance in Sprague-Dawley rat at 5 mg/kg, iv; type: ADME, organism-based; details: in vivo
[10] = test system: Osimertinib-resistant NCI-H1975 cell; test: cells; details: Homo sapiens, 72 h
[11] = Cytotoxicity against human HK-2 cells assessed as inhibition of cell growth; type: toxicity, cell-based
[12] = Cytotoxicity against human MCF-10A cells assessed as inhibition of cell growth; type: toxicity, cell-based
[13] = Cytotoxicity against human HEK293 cells assessed as inhibition of cell growth; type: toxicity, cell-based
[14] = Half life in Sprague-Dawley rat at 50 mg/kg, po; type: ADME, organism-based; details: in vivo
MKN-45 = test: cells; details: Homo sapiens, MKN-45, 72 h
Description: Antiproliferative activity against human MKN-45 cells assessed as cell viability incubated for 72 hrs by MTT assay

[15] = AUC (0 to last) in Sprague-Dawley rat at 5 mg/kg, iv; type: ADME, organism-based; details: in vivo, iv, 5 mg/kg
[16] = target: Tyrosine-protein kinase receptor UFO (Homo sapiens) (UniProt P30530); details: dose 100.0 nM
Description: Inhibition of AXL (unknown origin) at 100 nM by envision reader analysis relative to control

BXPC-3 [17] = test: Antitumor activity against human BXPC-3 cells xenografted in mouse assessed as tumor growth inhibition at 50 mg/kg, po administered for 14 days; type: functional; details: BXPC-3, 336 h, time 14 day, read-out: TGI
[18] = Volume of distribution at steady state in Sprague-Dawley rat at 5 mg/kg, iv; type: ADME, organism-based; details: in vivo, read-out: Vdss
[19] = Half life in Sprague-Dawley rat at 5 mg/kg, iv; type: ADME, organism-based; details: in vivo
cells = details: Homo sapiens, CDDP-resistant A549 cell, 72 h
Description: Antiproliferative activity against human CDDP-resistant A549 cell assessed as cell viability incubated for 72 hrs by MTT assay

[20] = AUC (0 to last) in Sprague-Dawley rat at 50 mg/kg, po; type: ADME, organism-based; details: in vivo, po, 50 mg/kg
A549/TR = test: cells; details: Homo sapiens, 72 h
Description: Antiproliferative activity against human A549/Taxol cells assessed as cell viability incubated for 72 hrs by MTT assay

[21] = Cytotoxicity against human HaCaT cells assessed as inhibition of cell growth; type: toxicity, cell-based
A549 = test: cells; details: Homo sapiens, A549, 72 h
Description: Antiproliferative activity against human A549 cells assessed as cell viability incubated for 72 hrs by MTT assay

Sequence of Tyrosine-protein kinase receptor UFO (Homo sapiens) (P30530 whole entry): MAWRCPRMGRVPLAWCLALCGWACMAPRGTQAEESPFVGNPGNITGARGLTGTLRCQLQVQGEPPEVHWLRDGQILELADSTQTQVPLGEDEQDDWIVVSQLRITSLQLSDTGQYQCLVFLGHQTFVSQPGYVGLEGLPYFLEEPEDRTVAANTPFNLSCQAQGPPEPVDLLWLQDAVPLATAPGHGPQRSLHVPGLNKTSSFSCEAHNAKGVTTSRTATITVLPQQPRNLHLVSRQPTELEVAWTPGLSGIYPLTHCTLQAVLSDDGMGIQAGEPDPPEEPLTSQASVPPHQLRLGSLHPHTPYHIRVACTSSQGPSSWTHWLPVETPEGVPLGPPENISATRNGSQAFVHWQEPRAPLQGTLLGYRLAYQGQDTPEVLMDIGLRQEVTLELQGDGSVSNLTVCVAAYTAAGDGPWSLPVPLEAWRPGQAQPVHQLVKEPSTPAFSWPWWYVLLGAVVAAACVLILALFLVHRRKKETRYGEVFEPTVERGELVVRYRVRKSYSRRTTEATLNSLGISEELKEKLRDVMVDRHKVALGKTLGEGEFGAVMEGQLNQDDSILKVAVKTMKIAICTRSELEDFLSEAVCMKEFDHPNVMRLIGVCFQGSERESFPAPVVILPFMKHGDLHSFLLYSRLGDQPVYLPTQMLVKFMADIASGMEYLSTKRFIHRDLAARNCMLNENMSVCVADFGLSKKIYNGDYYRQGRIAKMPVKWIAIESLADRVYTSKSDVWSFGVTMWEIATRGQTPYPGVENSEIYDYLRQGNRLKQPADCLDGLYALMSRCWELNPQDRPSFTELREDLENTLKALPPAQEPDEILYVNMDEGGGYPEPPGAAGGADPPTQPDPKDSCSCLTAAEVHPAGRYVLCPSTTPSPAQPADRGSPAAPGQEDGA

IC50 (MDA-MB-231): 1.86 µM
IC50 (BXPC-3 [2]): 1.95 µM
SMILES: CC(C(=O)N(C)c1ccc(N/C(=C2\C(=O)Nc3cc(Br)ccc32)c2ccccc2)cc1)N1CCCN(C)CC1 (racemic)
IC50 at 72 h [1]: 3.9 µM
IC50 at 72 h [3]: 2.15 µM

IC50 (MDA-MB-231): 4.54 µM
IC50 (BXPC-3 [2]): 3.74 µM
SMILES: CC(C(=O)N(C)c1ccc(N/C(=C2\C(=O)Nc3cc(Br)ccc32)c2ccccc2)cc1)N(C)CCN(C)C (racemic)
IC50 at 72 h [1]: 0.77 µM
IC50 at 72 h [3]: 1.77 µM

IC50 (MDA-MB-231): > 10 µM
IC50 (BXPC-3 [2]): > 10 µM
SMILES: CC(C(=O)N(C)c1ccc(N/C(=C2\C(=O)Nc3cc(Br)ccc32)c2ccccc2)cc1)N1CCSCC1 (racemic)
IC50 at 72 h [1]: > 10 µM
IC50 at 72 h [3]: > 10 µM

IC50 (MDA-MB-231): 2.06 µM
IC50 (BXPC-3 [2]): 2.31 µM
SMILES: CC(C(=O)N(C)c1ccc(N/C(=C2\C(=O)Nc3cc(Br)ccc32)c2ccccc2)cc1)N1CCN(CCO)CC1 (racemic)
IC50 at 72 h [1]: 2.11 µM
IC50 at 72 h [3]: 1.98 µM

Cmax [4]: 64.2 ng/mL
IC50 (PC-9): > 10 µM
IC50 (NCI-H1975): > 10 µM
F [5]: 7.91%
Tmax [6]: 2 h
IC50 (SW480): > 10 µM
IC50 (MDA-MB-231): > 10 µM
half-life [8]: 0.194 h
clearance [9]: 111 mL/min/kg
IC50 [10]: > 10 µM
half-life [14]: 3.99 h
IC50 (MKN-45): > 10 µM
AUClast [15]: 749 ng·h/mL
inhibition [16]: 32.1%
IC50 (BXPC-3 [2]): 5.34 µM
Vd [18]: 7.91 L/kg
half-life [19]: 1.76 h
IC50 (cells): > 10 µM
AUClast [20]: 64.2 ng·h/mL
IC50 (A549/TR): 10 µM
IC50 (A549): > 10 µM
SMILES: COC(=O)c1ccc2c(c1)NC(=O)/C2=C(\Nc1ccc(N(C)C(=O)CN2CCN(C)CC2)cc1)c1ccccc1 [NINTEDANIB]
Activity (BXPC-3 [7]): 55.84%
IC50 [11]: 2.87 µM
IC50 [12]: > 10 µM
IC50 [13]: 3.46 µM
inhibition in vivo at 50 mg/kg (BXPC-3 [17]): 68.1%
IC50 at 72 h [1]: 4.34 µM
IC50 at 72 h [3]: 3.69 µM
IC50 [21]: > 10 µM

IC50 (A549): 1.34 µM
SMILES: CC(=O)O[C@H]1C(=O)[C@@]2(C)[C@H]([C@H](OC(=O)c3ccccc3)[C@]3(O)C[C@H](OC(=O)[C@H](O)[C@@H](NC(=O)c4ccccc4)c4ccccc4)C(C)=C1C3(C)C)[C@]1(OC(C)=O)CO[C@@H]1C[C@@H]2O [PACLITAXEL]
